Key:
[1] = system: strychnine-insensitive glycine modulatory site of NMDA (N-methyl D-aspartate) receptors; test: [3H] glycine binding studies; conditions: 10 ng/mL test compound; 10 nM [3H] glycine; rat brain synaptic membrane preparation
Protocol: (§1) The activities of the compounds were measured by [^3 H] DCKA and [^3 H] glycine binding inhibition studies as illustrated below. [^3 H] glycine binding studies
(§2) A crude rat brain synaptic membrane preparation was washed three times by centrifugation at 50,000×g for 30 min with 50 mM tris acetate (pH 7.4). The pellets obtained were suspended in 0.23M sucrose solution and stored at -80° C. For binding studies, the frozen suspension was thawed, treated with 0.08% triton X-100 at 2° C. for 10 min, and washed twice by the centrifugation as mentioned above. The synaptic membrane thus prepared (ca. 150~200 μg of protein) was incubated with 10 nM [^3 H] glycine (1.11 TBq/mmol) and the test compound (10 ng/mL~0.1 ng/mL) at 2° C. for 10 min in 50 mM tris acetate (pH 7.4). The incubation was terminated by suction filtration using Whatman GF/B glass filter. The radioactivity bound to the membrane on the filter was measured by scintillation counting. Non-specific binding was calculated by the radioactivity measured under the incubations in the presence of 0.1 mM D-serine. The [3H] glycine binding was not inhibited by addition of 0.1 mM strychnine.

[2] = system: NMDA-induced tonic seizures; test: NMDA-induced seizure model; format: in vivo; conditions: 30 mg/kg, i.p., 30 min before NMDA (5 nmol) i.c.v.; mice
Protocol: The compounds of the present invention attenuated strongly NMDA-induced seizure under systemic administration in the following in vivo model. NMDA-induced seizure model Thirty min later following intraperitoneal administration of the test compound (0.3~30 mg/kg) into each of ten mice tested, NMDA (5 nmol) was administered intracerebroventricularly (i.c.v.).

[3] = system: strychnine-insensitive glycine modulatory site of NMDA (N-methyl D-aspartate) receptors; test: [3H] DCKA binding studies; conditions: 10 ng/mL test compound; 10 nM [3H] DCKA; rat brain synaptic membrane preparation
Protocol: as §1
[^3 H] DCKA binding studies
as §2, with “100” for “150~200”, “(DCKA) (603 GBq/mmol)” for “glycine (1.11 TBq/mmol)”, “ng/mL~0.1ng/mL)” for “ng/mL~0.1 ng/mL)”, “glycine. […] DCKA binding.” for “D-serine. The [3H] glycine binding was not inhibited by addition of 0.1 mM strychnine.”

Structure (SMILES): Cl.NCc1ccc(NC(=O)CC2CCc3cc(Cl)cc4[nH]c(C(=O)O)c2c34)c(CC(=O)O)c1 (stereo not drawn) [Example 5, 7-Chloro-3-[p-aminomethyl-o-(carboxymethyl)phenylcarbamoylmethyl]-1,3,4,5-tetrahydrobenz[cd]indole-2-carboxylic acid hydrochloride]
- inhibition of the [3H] glycine binding [1]: 69%
- protection from tonic seizures [2]: 90%
- inhibition of the [3H] DCKA binding [3]: 94%

From patent publication US5496843A, “Tricyclic indole-2-carboxylic acid derivatives” (Sumitomo Pharmaceuticals Company, Limited, priority 1993, dated 1996)
